Patent US11571435B2, “S1PR4-targeting composition for preventing or treating non-alcoholic steatohepatitis” (UNIVERSITY OF ULSAN FOUNDATION FOR INDUSTRY COOPERATION, priority 2017, dated 2023)

Assays:
[1] = reported for FTY720; cited from earlier work
[2] = test system: S1PR4-EGFP; experiment: S1PR4 internalization and recycling in cell lines overexpressing S1PR4-EGFP (fluorescence microscopy); format: cell-based; conditions: S1P 100 nM, FTY720 100 nM, SLB736 1 μM, cycloheximide; for S1PR4 internalization: 30 minutes after treatment; for S1PR4 recycling to the cell membrane: 2 hours (washed after 30 minutes)
Experimental: Cell lines overexpressing S1PR4-EGFP were used to identify whether or not SLB736 and FTY720 actually internalize S1PR4 into cells and thereby act as functional antagonists.
Specifically, the cell lines overexpressing S1PR4-EGFP were incubated in a cover glass allowing for microscopic observation and were then treated with a vehicle (dimethyl sulfoxide […]), S1P (100 nM; agonist, positive control group), FTY720 (100 nM) and SLB736 (1 μM). 30 minutes and 2 hours after treatment with each material, the cell lines were fixed with a fixing solution and observed with a fluorescence microscope. At this time, the cells were cultured after treatment with a protein synthesis inhibitor (cycloheximide) in order to inhibit the synthesis of new receptors, were first observed with a fluorescence microscope 30 minutes after each material treatment, and were then washed. Then, the cells were further cultured for 1 hour 30 minutes and were secondarily observed, and cell images were obtained.

[3] = target: T1, S1PR4 (Homo sapiens, UniProt O95977); experiment: agonistic activity of S1P receptors, GPCR activity measurement method of DiscoveRX Corp.; format: cell-based
T1 construct: purchased DiscoveRX Corp
T1 sequence (O95977 1-384): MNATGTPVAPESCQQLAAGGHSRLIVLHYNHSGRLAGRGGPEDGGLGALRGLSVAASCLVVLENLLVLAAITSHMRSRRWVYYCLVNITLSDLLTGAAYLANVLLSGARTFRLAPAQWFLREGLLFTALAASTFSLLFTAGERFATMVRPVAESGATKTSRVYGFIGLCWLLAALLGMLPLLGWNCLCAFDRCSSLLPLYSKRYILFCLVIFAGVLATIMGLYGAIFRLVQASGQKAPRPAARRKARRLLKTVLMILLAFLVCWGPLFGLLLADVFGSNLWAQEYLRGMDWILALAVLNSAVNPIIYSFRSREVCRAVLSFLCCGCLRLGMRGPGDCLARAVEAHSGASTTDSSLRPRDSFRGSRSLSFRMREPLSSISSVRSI

[4] = test system: NLRP3 inflammasome; experiment: IL-1β production of LPS-treated macrophages (NLRP3 inflammasome activity); format: cell-based, mouse; conditions: Raw cells; for inhibitory effect of IL-1β production: then LPS
Description: It is well known that the treatment of macrophages with lipopolysaccharide (LPS) results in activation of inflammation-regulating complex (inflammasome), thereby increasing IL-1β production (Mariathasan et al., Nat. Rev. Immunol. 2007; 17186029). In order to determine the inhibitory effect of the activity of inflammation-regulating complex (NLRP3 inflammasome), which is a representative inflammation-regulating protein, the IL-1(3 production of candidate substances upon the treatment of macrophages with LPS was measured and evaluated.
The macrophages were treated with myriocin in different concentrations as a control group and were then treated with the same concentration of LPS for 24 hours. […] Based on this, experiments were conducted to determine the effect of sphingolipid candidates on the inhibition of IL-1β.

[5] = target: T2, S1PR4 (Mus musculus, UniProt Q9Z0L1); experiment: S1PR4 protein expression in liver tissue of MCDD-fed mice (Western blotting); format: in vivo; conditions: C57BL/6N mice, 1 mg/kg with MCDD for 6 weeks, vs MCDD alone
T2 construct: endogenous in cells; host or cells: Raw cells (mouse macrophage line)
T2 sequence (Q9Z0L1 1-386): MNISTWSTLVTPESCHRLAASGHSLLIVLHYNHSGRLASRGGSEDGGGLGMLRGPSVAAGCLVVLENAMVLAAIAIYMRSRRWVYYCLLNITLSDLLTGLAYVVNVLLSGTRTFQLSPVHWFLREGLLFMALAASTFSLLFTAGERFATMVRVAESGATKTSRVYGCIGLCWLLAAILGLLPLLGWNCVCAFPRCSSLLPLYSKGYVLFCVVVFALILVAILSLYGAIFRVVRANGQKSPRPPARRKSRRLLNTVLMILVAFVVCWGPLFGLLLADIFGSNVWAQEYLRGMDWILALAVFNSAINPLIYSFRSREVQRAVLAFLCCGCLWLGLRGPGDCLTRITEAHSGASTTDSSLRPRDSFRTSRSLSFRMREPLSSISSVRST
Description: In order to determine whether or not SLB736, the compound of the present invention, acts as a functional antagonist of S1PR4, changes in S1PR4 protein expression were observed after administration of candidate substances to nonalcoholic steatohepatitis (NASH) model mice and macrophages thereof.
It is well known that the administration of a methionine choline-deficient diet (MCDD) to mice results in non-alcoholic steatohepatitis. The mice (C57BL/6N, Orient Bio, Inc., Korea) used in the experiments were divided into three groups, and MCDD alone, 1 mg/kg of MCDD and FTY720, and 1 mg/kg of MCDD and SLB736 were administered to each group for 6 weeks. Then, changes in the expression of S1PR4 protein in liver tissue of mice were measured through Western blotting.

[6] = target: T2, S1PR4; experiment: S1PR4 expression in LPS-treated Raw cells; format: cell-based; conditions: substance then LPS, vs LPS only
Experimental: In addition, Raw cells, which are mouse macrophage lines, were treated with a FTY720 or SLB736 substance, and were then treated with LPS, and S1PR4 expression was then measured.

[7] = test system: non-alcoholic steatohepatitis (NASH) caused by MCDD; experiment: prevention of NASH onset in mice administered MCDD for 6 weeks; format: in vivo, mouse
Description: In order to identify the effect of the SLB736 compound on the prevention of onset of non-alcoholic steatohepatitis (NASH), an animal model administered with MCDD for 6 weeks was used. Generally known characteristic microscopic findings of NASH include steatosis, ballooning degeneration of hepatocytes, lobular inflammation, perisinusoidal fibrosis and the like. In 2005, the NASH clinical research network (CRN) designed a detailed grading system for lesions corresponding to nonalcoholic steatohepatitis and thus proposed the nonalcoholic fatty liver disease activity score (NAS), which is widely used in various research due to the excellent reproducibility thereof. Accordingly, the present inventors have scored the grade of steatosis, location of steatosis, lobular inflammation and the extent of fibrosis, from the results of liver tissue observation of animal models, based on the CRN classification system. Based on this, the effect of SLB736, which is the target compound in the present invention, on the prevention or progression of non-alcoholic steatohepatitis caused by MCDD was evaluated. […] In order to determine this quantitatively, evaluation was conducted according to the NAS system of the CRN. […] In addition, the expression levels of TGF-β, TNF-α and MCP-1 were measured in order to identify the effects of the SLB736 compound on the expression of inflammatory markers and fibrosis markers in liver tissue. Specifically, RNA was extracted from liver tissue of the animal model and mRNA was measured using Q-PCR.

[8] = test system: non-alcoholic steatohepatitis (NASH) caused by MCDD; experiment: treatment of NASH in NASH-induced mice (MCDD for 4 weeks, then 4 weeks treatment); format: in vivo, mouse; conditions: 5 mg/kg/day for 4 weeks after 4 weeks MCDD, liver tissue
Experimental: A NASH-induced animal model obtained by administering MCDD to 8-week-old mice (C57BL6/N, Orient Bio Inc., Korea) for 4 weeks was used in order to identify the effect of the SLB736 compound on the treatment of non-alcoholic steatohepatitis (NASH). Specifically, the NASH-induced model mice were divided into two groups, the control group was further fed with MCDD for 4 weeks, the experimental group was fed with SLB736 at a dose of 5 mg/kg/day for 4 weeks in combination with MCDD, and liver tissue was collected from each mouse and observed with a microscope to determine the degree of steatosis, lobular inflammation and fibrosis.

[9] = leukocytes and lymphocytes in whole blood after administration (lymphopenia); format: in vivo, mouse; conditions: mice, automated analyzer
Experimental: Therefore, when the SLB736 of the present invention was administered, changes of leukocytes and lymphocytes in the blood were measured to determine the possibility of side effects. On the day of autopsy, blood was collected from the posterior vein using a syringe and whole blood was refrigerated in an EDTA-2K CBC bottle. The leukocytes and lymphocytes in the whole blood were measured using an automated analyzer.

[10] = 10 times a normal dose; cited from earlier work
[11] = 1 mg/kg/day for six weeks with MCDD, liver tissue
[12] = 1 mg/kg/day for six weeks with MCDD, vs control group
[13] = liver tissue, MCDD 6 weeks model

## CCCCCCCCc1ccc(CCC(N)(CO)CO)cc1 [FTY720, Fingolimod]
[1]
  side effect in the blood: lymphopenia in the blood

## CCCCCCCCCCCCC/C=C/[C@@H](O)[C@@H](N)COP(=O)(O)O [S1P, sphingosine 1-phosphate, reference compound]
[2]
  S1PR4 internalization: internalized
  S1PR4 recycling to the cell membrane: recycled to the cell membrane

## CCCCCCCCCCn1cc(CCC(N)(CO)CO)nn1 [SLB736, 2-amino-2-(2-(1-decyl-1H-1,2,3-triazol-4-yl)ethyl)propane-1,3-diol]
[3]
  agonistic activity of S1P receptors: agonistic effect specific for S1PR4
[4]; 0.1 μM
  inhibitory effect of IL-1β production: excellent
[4]; 1.0 μM
  inhibitory effect of IL-1β production: excellent
[5]
  amount of S1PR4 protein in liver tissue: decreased
[6]
  expression level of S1PR4: significantly reduce
[2]
  S1PR4 internalization: internalized
  S1PR4 recycling to the cell membrane: not recycled
[7]; [11]
  degree of fibrosis (microscope): significantly reduced
  degree of steatosis (microscope): significantly reduced
  lobular inflammation (microscope): significantly reduced
[7]; [12]
  degree of fibrosis, NAS system of the CRN: significantly alleviated
  degree of steatosis, NAS system of the CRN: significantly alleviated
  lobular inflammation, NAS system of the CRN: significantly alleviated
[7]; [13]
  expression of MCP-1 (mRNA, Q-PCR): reduced to a significant level
  expression of TGF-β (mRNA, Q-PCR): reduced to a significant level
  expression of TNF-α (mRNA, Q-PCR): reduced to a significant level
[8]
  degree of fibrosis (microscope): considerable reduction
  degree of steatosis (microscope): considerable reduction
  lobular inflammation (microscope): considerable reduction
[9]
  leukocytes in blood: no reduction
  lymphocytes in blood: no reduction

## CCCCCCC(=O)CCCCCC/C=C/C[C@@H](O)[C@H](O)[C@@](N)(CO)C(=O)O [myriocin, reference compound]
[4]; 10 μM, then LPS 100 ng/ml for 24 hours
  IL-1β production: effectively reduced IL-1β production
[10]
  toxicity in animals: death from severe digestive disorders
